In patent US20200087326A1, “DEEP RED FLUORESCENT PROBE” (The University of Tokyo, priority 2016, published 2020):

Legend:
[1] = Evaluation of compounds A-C as Ca^2+ probes (fluorescence intensity vs free Ca^2+); type: binding
Protocol: To investigate whether the synthesized compounds A, B, and C can function as Ca^2+ probes, the absorption and fluorescence spectra were measured in solutions of various Ca^2+ concentrations. FIG. 7 represents the absorption spectra (left), emission spectra (center), and fluorescence spectra (right) of 1 μM of compounds A, B, and C in the presence of various concentrations ([…])propanesulfonic acid (MOPS) containing […] and […] (EGTA). The excitation wavelengths were 646 nm (A), 648 nm (B), and 635 nm (C).

[2] = Absorption and fluorescence spectra (photophysical properties) of compounds A-C in solutions of various Ca^2+ concentrations; type: physicochemical; conditions: 1 μM compound, pH 7.2 MOPS
Protocol: To investigate whether the synthesized compounds A, B, and C can function as Ca^2+ probes, the absorption and fluorescence spectra were measured in solutions of various Ca^2+ concentrations. FIG. 7 represents the absorption spectra (left), emission spectra (center), and fluorescence spectra (right) of 1 μM of compounds A, B, and C in the presence of various concentrations (0, 0.017, 0.038, 0.065, 0.100, 0.150, 0.225, 0.351, […]) of free Ca^2+ in pH 7.2 30 mM 3-(N-morpholino)propanesulfonic acid (MOPS) containing […] and […] (EGTA). The excitation wavelengths were 646 nm (A), 648 nm (B), and 635 nm (C).

[3] = 39 μM vs 0 μM free [Ca^2+] buffer
[4] = In 0 μM free [Ca^2+] buffer (absence of Ca^2+)

With `Cc1ccc(N(CC(=O)O)CC(=O)O)c(OCCOc2cc(NC(=O)c3ccc(C4=C5C=CC(=[N+](C)C)C=C5[Si](C)(C)c5cc(N(C)C)ccc54)c(C(=O)O)c3)ccc2N(CC(=O)O)CC(=O)O)c1` [Compound A] the “Activation Ratio” value [1, 3] was “×2.5”, the Activation Ratio ([1]; with vs without Ca^2+) was 2.5 fold and the Φfl [2, 4] was 0.10. The λabs ([2]; In 0 μM free [Ca^2+] buffer) was 646 nm, the λfl ([2]; In 0 μM free [Ca^2+] buffer) was 673 nm and the Φfl ([2]; In 39 μM free [Ca^2+] buffer) was 0.25. It also gave a λabs ([2]; In 39 μM free [Ca^2+] buffer) of 646 nm and a λfl ([2]; In 39 μM free [Ca^2+] buffer) of 674 nm.

For `Cc1ccc(N(CC(=O)O)CC(=O)O)c(OCCOc2cc(NC(=O)c3ccc(C(=O)O)c(C4=C5C=CC(=[N+](C)C)C=C5[Si](C)(C)c5cc(N(C)C)ccc54)c3)ccc2N(CC(=O)O)CC(=O)O)c1` [Compound B], the “Activation Ratio” value [1, 3] was “×7.3”, the Φfl [2, 4] was 0.04 and the λabs ([2]; In 0 μM free [Ca^2+] buffer) was 648 nm. The λfl ([2]; In 0 μM free [Ca^2+] buffer) was 671 nm, the Φfl ([2]; In 39 μM free [Ca^2+] buffer) was 0.29 and the λabs ([2]; In 39 μM free [Ca^2+] buffer) was 647 nm. For the same molecule, the λfl ([2]; In 39 μM free [Ca^2+] buffer) was 672 nm.

With `Cc1ccc(N(CC(=O)O)CC(=O)O)c(OCCOc2cc(NC(=O)C/[N+](C)=C3/C=CC4=C(c5ccccc5C(=O)[O-])c5ccc(N(C)C)cc5[Si](C)(C)C4=C3)ccc2N(CC(=O)O)CC(=O)O)c1` [Compound C] the “Activation Ratio” value [1, 3] was “×26”, the Activation Ratio ([1]; with vs without Ca^2+) was 26 fold and the Φfl [2, 4] was 0.01. For the same molecule, the λabs ([2]; In 0 μM free [Ca^2+] buffer) was 637 nm, the λfl ([2]; In 0 μM free [Ca^2+] buffer) was 664 nm and the Φfl ([2]; In 39 μM free [Ca^2+] buffer) was 0.26. The λabs ([2]; In 39 μM free [Ca^2+] buffer) was 636 nm and the λfl ([2]; In 39 μM free [Ca^2+] buffer) was 661 nm.
